Measured values as given in ChEMBL document CHEMBL3886524, “Heteroaryl pyridone and aza-pyridone compounds with electrophilic functionality” (2016).
pKi: −log10 of the molar value.

What follows are compounds tested against Tyrosine-protein kinase BTK (Homo sapiens, UniProt Q06187) (assay: Biochemical Btk Assay: A generalized procedure for a standard biochemical Btk, Kinase Assay that can be used to test Formula I compounds is as follows. A master mix minus Btk enzyme is prepared containing 1x Cell Signaling kinase buffer (25 mM Tris-HCl, pH 7.5, 5 mM beta-glycerophosphate, 2 mM dithiothreitol, 0.1 mM Na3VO4, 10 mM MgCl2), 0.5 uM Promega PTK Biotinylated peptide substrate 2, and 0.01% BSA. A master mix plus Btk enzyme is prepared containing 1x Cell Signaling kinase buffer, 0.5 uM PTK Biotinylated peptide substrate 2, 0.01% BSA, and 100 ng/well (0.06 mU/well) Btk enzyme. Btk enzyme is prepared as follows: full length human wildtype Btk (accession number NM-000061) with a C-terminal V5 and 6xHis tag was subcloned into pFastBac vector (Invitrogen/Life Technologies) for making baculovirus carrying this epitope-tagged Btk.).
Sequence of Tyrosine-protein kinase BTK (Q06187 whole entry): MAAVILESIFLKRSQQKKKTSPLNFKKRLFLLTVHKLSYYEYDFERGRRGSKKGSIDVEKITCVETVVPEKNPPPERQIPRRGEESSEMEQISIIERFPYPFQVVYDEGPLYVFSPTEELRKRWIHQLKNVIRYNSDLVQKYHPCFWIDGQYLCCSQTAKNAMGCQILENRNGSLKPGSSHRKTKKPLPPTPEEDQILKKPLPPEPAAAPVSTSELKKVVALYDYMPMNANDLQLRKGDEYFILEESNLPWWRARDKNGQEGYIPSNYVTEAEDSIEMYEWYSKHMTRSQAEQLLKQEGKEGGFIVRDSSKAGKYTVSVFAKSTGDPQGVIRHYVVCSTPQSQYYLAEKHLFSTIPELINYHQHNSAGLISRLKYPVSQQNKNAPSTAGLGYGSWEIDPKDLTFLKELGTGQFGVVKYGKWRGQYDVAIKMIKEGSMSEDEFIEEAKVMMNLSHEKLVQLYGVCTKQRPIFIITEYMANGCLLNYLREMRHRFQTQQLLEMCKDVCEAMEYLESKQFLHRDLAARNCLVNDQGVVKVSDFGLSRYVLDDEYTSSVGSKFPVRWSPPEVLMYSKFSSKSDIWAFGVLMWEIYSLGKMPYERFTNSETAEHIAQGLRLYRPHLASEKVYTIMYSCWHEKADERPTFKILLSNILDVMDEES
`C=CC(=O)N[C@H]1CCCN(c2cccc(Nc3cc(-c4ccnc(N5CCn6c(cc7c6CC(C)(C)C7)C5=O)c4CO)cn(C)c3=O)n2)C1` showed a pKi of 9.05.
`C=C(C#N)C(=O)NCCOc1cccc(Nc2cc(-c3ccnc(N4CCn5c(cc6c5CC(C)(C)C6)C4=O)c3CO)cn(C)c2=O)n1` showed a pKi of 8.77.
`C=CC(=O)NCCN(C)c1cccc(Nc2cc(-c3ccnc(N4CCn5c(cc6c5CC(C)(C)C6)C4=O)c3CO)cn(C)c2=O)n1` was tested, and the pKi was 9.17.
Compound `C=CC(=O)NCCNc1cccc(Nc2cc(-c3ccnc(N4CCn5c(cc6c5CC(C)(C)C6)C4=O)c3CO)cn(C)c2=O)n1` has a pKi of 8.36.
`CC#CC(=O)NCCOc1cccc(Nc2cc(-c3ccnc(N4CCn5c(cc6c5CC(C)(C)C6)C4=O)c3CO)cn(C)c2=O)n1` was tested, and the pKi was 8.63.
